Measurements from patent US9241964B2, “Composition from Sphaeranthus indicus and Garcinia mangostana for the control of metabolic syndrome” (LAILA NUTRACEUTICALS, priority 2009, dated 2016).

Test system: CD36
Test: Immunoblot of CD36 in high glucose induced J774 macrophage cells
Type: cell-based, mouse
Conditions: glucose 600 mg/dL for 5 days, LI054A01 at 1 μg/ml
Method: In macrophages, CD36 is a scavenger receptor that mediates uptake of oxidized low-density lipoprotein (OxLDL) and subsequent foam-cell development. Therefore, increased level of CD36 in macrophages has been considered as a predictive marker for development of atherosclerosis. Inhibition of CD36 protein expression in high glucose induced J774 macrophage cells in presence or absence of LI/DD-II/054A/01 and LI054A01 was evaluated using immunoblot assay. Briefly, equal amount of cell lysates protein obtained after treating the cells with LI/DD-II/054A/01 or LI054A01 was resolved in 7.5% SDS-PAGE; thereafter, the proteins were transferred to nitrocellulose membrane. […] Finally, the specific immuno-reactive bands were developed with West-pico chemiluminescent substrate (Pierce Biotechnology, IL, USA), and the immunoblot images were recorded in a Kodak Image Station (Kodak, USA). Band intensities were calculated densitometrically and normalized with expression of actin in respective samples. […]
Experimental protocol: This was evaluated in glucose induced J774, mouse macrophage cells. […] Protein concentration was measured by Bradford method.
Inhibition of CD36 protein expression in high glucose induced J774 macrophage cells in presence or absence of LI/DD-II/054A/01 and LI054A01 was evaluated in immunoblot assay. […]

## C=C1C(=O)O[C@H]2C3=C(C)CCC[C@]3(C)CC[C@@]12O [LI054A01, 7-α-hydroxy-4,11(13)-eudesmadien-12,6-olide]
  inhibition of CD36 compared to that shown by LI/DD-II/054A/01: 10 times
